Several values for one entry are separate records, joined by “and”; a condition that tells them apart may be missing. Equal values may be shown once.
Assays:
Type in all cases: in vivo, rat
[1] = tested on: hippocampal CA1 neuronal cells; assay: HE staining of hippocampus CA1, degree of neuronal death; settings: HE-stained specimens after 28 days of administration; arundic acid 30, taltirelin 10, combination 10+3 mg/kg/day
Procedure: After completion of the Transfer test, the rats were anesthetized, and the chest cavity was opened to expose the heart. A ventricle was incised to insert a catheter from the heart to the carotid artery, and 50 mL or more of heparinized physiological saline was perfused. Subsequently, 50 mL or more of 4% paraformaldehyde phosphate buffer was perfused. The perfusion procedures were performed with ligation of the main artery. After perfusion-fixation, the brain was removed and immersion-fixed in 4% paraformaldehyde phosphate buffer.
20-μm serial thick frozen sections were prepared from this brain using a cryostat. Alternating serial sections were stained with hematoxylin-eosin. The degree of neuronal death in the stained tissue was semi-quantitatively evaluated under an optical microscope.

[2] = tested on: four-vessel occlusion model of rats; assay: Morris water maze Transfer test in four-vessel occlusion model; settings: 4-VO rats, oral 28 d: arundic acid 30, taltirelin 10, combination 10+3 mg/kg/day; for Residence time in Zone 3: Table 6
Procedure: The water temperature of the water maze during the experiment was kept at 23° C. […] A Transfer test was performed 3 days after the final administration of test drugs. For the Transfer test, the platform was removed, and the pool was filled with water to a water depth of 31 cm. To enable the rats to memorize surrounding various spatial arrangements, cues, such as posters and photographs, were placed on the wall. The cues always remained at the same locations during the experiment (FIG. 1: a plan view of Morris water maze, and the laboratory layout). Three days after the final administration of the test drug, the platform was removed and a Transfer test in which the pool was filled with water to a water depth of 31 cm was performed. […] Each rat was given only one trial, and the time was 180 seconds. The starting point was on the side opposite to the platform (see FIG. 1). In the Transfer test, the time spent in each Zone and the number of times the rats crossed over the platform location were determined. The behaviors of the rats in each trial were automatically analyzed with a CCD camera and the SMART (produced by Kyoto […]) behavioral analysis program by binarization of the white color of rats' fur and black ash color of the surrounding area. Significant differences between the groups in spatial memory according to the Morris water maze method were determined by the nonparametric Dunnett's multiple comparison test. 6) After completion of the Morris water maze test, the brain of each rat was perfusion-fixed with 4% paraformaldehyde. The details are as follows.

[3] = Body weight changes in four-vessel occlusion rats; settings: for Body weight, Day 7 / Body weight, Day 14 / Body weight, Day 21 / Body weight, Day 28 / Body weight, Day 0: Mean ± S.E.; for Body weight, Day 7 / Body weight, Day 14 / Body weight, Day 21 / Body weight, Day 28: 4-VO rats, oral daily: arundic acid 30, taltirelin 10, combination 10+3 mg/kg/day; for Body weight, Day 0: before administration, one week after 4-VO surgery, groups later given arundic acid 30, taltirelin 10, combination 10+3 mg/kg/day; for Body weight change in words: compared with Group 2 (control), until day 28, arundic acid 30, taltirelin 10, combination 10+3 mg/kg/day
Procedure: 7-week-old (body weight: 200 to 240 g) male Crl: Wistar rats were used for an experiment after acclimation for 1 week or more. During the experimental period, the rats were raised in an animal room maintained at a room temperature of 23±1° C. and a humidity of 55±5%, and illuminated for 12 hours (6:30-18:30); with ad libitum access to food (Oriental Yeast, CRF-1) and water.
Arundic acid ((R)-(−)-2-propyloctanoic acid: Lot No. CS04818-503, M.W.186.29, specific gravity: 0.908), which is an astrocyte function-improving agent, used in this test is a product synthesized by Chemical Soft Co., Ltd. Taltirelin hydrate (hereinafter referred to as taltirelin, M.W.463.47: N-[(4S)-1-methyl-2,6-dioxohexahydropyrimidine-4-carbonyl]-L-histidyl-L-prolinamide (Lot No. N16P)), which is a ataxia-improving agent, used in this test is a product purchased from Matrix Scientific. When arundic acid was to be administered at a dose of 30 mg/kg/5 mL, 1.61 mL of 1N NaOH was added to 300 mg (306 μL) of arundic acid to dissolve the arundic acid, and 48.084 mL of water or 0.5% CMC (carboxymethyl cellulose) was added to the resulting solution to make a total volume of 50 mL. In the experiment, a 10-fold concentrated arundic acid solution was prepared and adjusted for the concentration before use. When taltirelin was to be administered at a dose of 3 mg/kg or 10 mg/kg, taltirelin was dissolved in distilled water in a volume of 5 ml/kg. The test drug(s) were orally administered for 28 days (including Saturdays, Sundays, and public holidays), starting from 1 week after preparation of four-vessel occlusion models.
Five groups of rats (4 to 6 rats per group) were used. The details are as follows. Group 1 is a group that was not subjected to four-vessel occlusion. Groups 2 to 5 are groups that were subjected to four-vessel occlusion.
A vertebral artery cauterization surgery was performed in accordance with the method of Pulsinelli & Brierley (Pulsinelli, W. A. and Brierley, J. B.: Stroke 10, 267, 1979). More specifically, the rats anesthetized with Nem-ravona (registered trademark) and Butal (registered trademark) were fixed in the prone position to a brain stereotaxic apparatus, and the dorsal cervical skin and muscle layer were incised to expose the first cervical vertebra. The tips of the tweezers of a bipolar coagulator (Mizuho Ikakogyo Co., Ltd.; MICROID) were inserted into the alar foramina on both sides of the first cervical vertebra, and the vertebral artery running upward toward the cerebral base was bilaterally cut off by electrocauterization. The skin was then sutured. Subsequently, the rats were fixed again in the supine position to an experimental surgical table, and the ventral cervical skin was incised. After the bilateral common carotid arteries were separated from surrounding tissues and silk thread was looped around the arteries, the skin was sutured. After completion of the surgery, the rats were returned to a cage and observed. No behavioral abnormality was confirmed.
Twenty-four hours after vertebral artery cauterization by the above method, the rats under isoflurane inhalation anesthesia were fixed in the supine position for immobilization before common carotid artery ligation on the following day. The ventral cervical skin was incised again to expose bilateral common carotid arteries. First, the right-side common carotid artery was occluded with an artery clamp or Mosquito hemostat forceps (both forceps were covered with a silicone tube to reduce stimulus to the blood vessel wall). After about 60 seconds, the left-side common carotid artery was occluded in the same manner. Since righting reflex (RR) of rats during bilateral common carotid artery occlusion, i.e., rats with brain ischemia, was lost, immobilization in the supine-position seemed unnecessary. However, sudden movements, such as walking-like motions of four limbs or lateral turning, were observed. […]

Row | SMILES | Hippocampal CA1 neuronal cell death / regeneration, in words [1] | Residence time in Zone 1 ([2]; Mean ± S.E.) [s] | Residence time in Zone 1 (%) ([2]; Mean ± S.E.) | Residence time in Zone 2 ([2]; Mean ± S.E.) [s] | Residence time in Zone 2 (%) ([2]; Mean ± S.E.) | Residence time in Zone 3 (%) ([2]; Mean ± S.E.) | Residence time in Zone 4 ([2]; Mean ± S.E.) [s] | Residence time in Zone 4 (%) ([2]; Mean ± S.E.) | Transfer test Platform Crossing Times ([2]; Mean ± S.E.) | Transfer test Residence time in Zone 3 ([2]; Mean ± S.E.) [s] | Residence time in Zone 3 ([2]; Mean ± S.E.) [s] | Residence time in Zone 3 ([2]; individual rat, 3 mg/kg/day) | Residence time in Zone 1 ([2]; individual rat, 3 mg/kg/day) | Residence time in Zone 1 (%) ([2]; individual rat, 3 mg/kg/day) | Residence time in Zone 2 ([2]; individual rat, 3 mg/kg/day) | Residence time in Zone 2 (%) ([2]; individual rat, 3 mg/kg/day) | Residence time in Zone 3 (%) ([2]; individual rat, 3 mg/kg/day) | Residence time in Zone 4 ([2]; individual rat, 3 mg/kg/day) | Residence time in Zone 4 (%) ([2]; individual rat, 3 mg/kg/day) | Transfer test Platform Crossing Times ([2]; individual rat, 3 mg/kg/day) | other results
1 | CN1C(=O)C[C@@H](C(=O)N[C@@H](Cc2c[nH]cn2)C(=O)N2CCC[C@H]2C(N)=O)NC1=O [Taltirelin, N-[(4S)-1-methyl-2,6-dioxohexahydropyrimidine-4-carbonyl]-L-histidyl-L-prolinamide] | shedding was observed | 39.3 ± 5.4 | 21.7 ± 3.0 | 34.2 ± 10.3 | 19.0 ± 5.8 | 31.6 ± 2.4 | 50.2 ± 8.5 | 27.6 ± 4.6 | 5.3 ± 1.4 | 57 ± 4.1 | 57.1 ± 4.1 | 58.5 s and 66.9 s and 47.1 s and 56 s | 24.5 s and 44.4 s and 38.6 s and 49.7 s | 13.6% and 24.8% and 21.2% and 27.3% | 63 s and 30.4 s and 29.6 s and 14.1 s | 35.1% and 17.0% and 16.2% and 7.7% | 32.6% and 37.3% and 25.8% and 30.7% | 33.6 s and 37.5 s and 67 s and 62.5 s | 18.7% and 20.9% and 36.8% and 34.3% | 8 and 7 and 4 and 2 | Body weight, Day 7 [3]: 256.6 ± 8.7 g; Body weight, Day 14 [3]: 272.3 ± 10.3 g; Body weight, Day 21 [3]: 291.3 ± 12.0 g; Body weight, Day 28 [3]: 307.2 ± 12.2 g; Body weight, Day 0 [3]: 228.6 ± 4.5 g; Body weight change in words [3]: favorable body weight increase
2 | CCCCCC[C@@H](CCC)C(=O)O [Arundic acid, (R)-(−)-2-propyloctanoic acid] | promoted regeneration of hippocampal CA1 neuronal cells | 41.6 ± 8.7 | 22.8 ± 4.3 | 42.0 ± 10.9 | 23.0 ± 5.5 | 34.6 ± 5.1 | 34.9 ± 83 | 19.6 ± 4.7 | 5.5 ± 1.4 | 62 ± 8.4 | 61.9 ± 8.4 | 82.9 s and 66.0 s and 43.6 s and 55.2 s | 24.0 s and 32.5 s and 63.9 s and 45.8 s | 13.3% and 19.3% and 33.3% and 25.4% | 16.9 s and 34.4 s and 68.2 s and 48.3 s | 9.4% and 20.4% and 35.5% and 26.8% | 46.0% and 39.1% and 22.7% and 30.6% | 56.5 s and 35.7 s and 16.4 s and 31.0 s | 31.3% and 21.2% and 8.5% and 17.2% | 6 and 9 and 2 and 5 | Body weight, Day 7 [3]: 255.5 ± 5.1 g; Body weight, Day 14 [3]: 272.6 ± 7.4 g; Body weight, Day 21 [3]: 288.0 ± 7.1 g; Body weight, Day 28 [3]: 308.5 ± 5.0 g; Body weight, Day 0 [3]: 228.7 ± 4.9 g; Body weight change in words [3]: favorable body weight increase

Reference: US10828303B2, “Composition comprising combination of TRH analog with arundic acid, and pharmaceutically acceptable salt of arundic acid” (Brivention Pharmaceutical (Shanghai) Inc., priority 2016, dated 2020)
